Patent US20150031668A1, “CHROMAN DERIVATIVES AS TRPM8 INHIBITORS” (AMGEN INC., priority 2013, published 2015)
Counter-ions that a name gives are not always drawn.

Molecular target: T1, human TRPM8 (Homo sapiens, UniProt Q7Z2W7)
T1 construct: expressed in transfected cells; host or cells: Chinese hamster ovary (CHO) cells, T-REx tetracycline-inducible expression system (Invitrogen); co-transfected with pcDNA3.1 aequorin
Test: Luminescence readout assay for measuring intracellular calcium (aequorin, CHO cells expressing human TRPM8; icilin, L-menthol or cold activation)
Assay type: cell-based
Conditions: CHO cells expressing human TRPM8, icilin activation (1 μM), aequorin luminescence; read-out: hTRPM8 IC50
Outline: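 Activation was by 1 μM icilin, 100 μM L-menthol (test compound 2.5 min ahead) or cold buffer below 10° C (compound 1 min ahead). Calcium rise measured as aequorin luminescence in CHO cells with tetracycline-inducible human TRPM8.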

T1 sequence (Q7Z2W7 whole entry): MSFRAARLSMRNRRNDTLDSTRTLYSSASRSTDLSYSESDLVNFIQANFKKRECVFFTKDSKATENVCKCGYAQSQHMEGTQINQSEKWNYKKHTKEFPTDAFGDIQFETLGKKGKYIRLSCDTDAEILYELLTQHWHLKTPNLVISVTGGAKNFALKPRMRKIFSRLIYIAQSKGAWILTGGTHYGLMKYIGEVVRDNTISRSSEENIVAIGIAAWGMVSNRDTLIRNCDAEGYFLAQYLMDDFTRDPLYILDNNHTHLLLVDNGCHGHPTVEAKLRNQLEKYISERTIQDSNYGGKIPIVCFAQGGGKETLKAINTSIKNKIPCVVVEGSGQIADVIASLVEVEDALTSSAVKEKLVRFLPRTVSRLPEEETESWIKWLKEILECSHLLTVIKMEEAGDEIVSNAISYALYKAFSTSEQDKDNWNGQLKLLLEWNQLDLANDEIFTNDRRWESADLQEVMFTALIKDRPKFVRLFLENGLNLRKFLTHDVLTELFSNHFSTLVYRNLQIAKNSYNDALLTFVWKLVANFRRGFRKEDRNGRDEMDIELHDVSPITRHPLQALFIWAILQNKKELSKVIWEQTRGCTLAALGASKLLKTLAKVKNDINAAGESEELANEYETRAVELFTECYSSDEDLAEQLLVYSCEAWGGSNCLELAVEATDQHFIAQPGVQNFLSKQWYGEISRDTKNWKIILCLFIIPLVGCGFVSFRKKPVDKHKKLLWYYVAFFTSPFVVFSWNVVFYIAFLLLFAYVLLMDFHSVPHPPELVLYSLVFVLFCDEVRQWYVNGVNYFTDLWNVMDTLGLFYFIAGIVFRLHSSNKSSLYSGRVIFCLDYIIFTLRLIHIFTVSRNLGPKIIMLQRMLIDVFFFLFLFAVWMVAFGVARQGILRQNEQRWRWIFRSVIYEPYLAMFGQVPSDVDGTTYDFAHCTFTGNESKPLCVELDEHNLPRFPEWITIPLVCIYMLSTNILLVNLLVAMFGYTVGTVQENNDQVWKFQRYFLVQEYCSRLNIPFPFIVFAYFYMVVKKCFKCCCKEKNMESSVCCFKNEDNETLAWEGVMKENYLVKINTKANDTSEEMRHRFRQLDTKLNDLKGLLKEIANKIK

IC50 [nM] | Compound
44 | O=C(N[C@]1(c2ccc(Cl)c(Cl)c2)CCOc2cccnc21)c1ccc(=O)[nH]c1 [Example 194, (S)-N-(4-(3,4-dichlorophenyl)-3,4-dihydro-2H-pyrano[3,2-b]pyridin-4-yl)-6-oxo-1,6-dihydropyridine-3-carboxamide]
6 | NC(=O)c1ccc(C(=O)N[C@]2(c3ccc(OC(F)(F)F)c(F)c3)CCOc3cccnc32)cc1 [Example 195, (S)-N1-(4-(3-fluoro-4-(trifluoromethoxy)phenyl)-3,4-dihydro-2H-pyrano[3,2-b]pyridin-4-yl) terephthalamide 2,2,2-trifluoroacetate]
7 | COC(=O)c1cc2ccc(C(=O)N[C@]3(c4ccc(OC(F)(F)F)c(F)c4)CCOc4cccnc43)cc2n1C [Example 196, (S)-methyl 6-((4-(3-fluoro-4-(trifluoromethoxy)phenyl)-3,4-dihydro-2H-pyrano[3,2-b]pyridin-4-yl)carbamoyl)-1-methyl-1H-indole-2-carboxylate]
92 | O=C(N[C@]1(c2ccc(OC(F)(F)F)c(F)c2)CCOc2cccnc21)c1ccc(C(=O)O)c(Cl)c1 [Example 197, (S)-2-chloro-4-((4-(3-fluoro-4-(trifluoromethoxy)phenyl)-3,4-dihydro-2H-pyrano[3,2-b]pyridin-4-yl)carbamoyl) benzoic acid 2,2,2-trifluoroacetate]
35 | O=C(N[C@]1(c2ccc(OC(F)(F)F)c(F)c2)CCOc2cccnc21)c1cscn1 [Example 198, (S)-N-(4-(3-fluoro-4-(trifluoromethoxy)phenyl)-3,4-dihydro-2H-pyrano[3,2-b]pyridin-4-yl) thiazole-4-carboxamide]
12 | Cc1cc([C@@]2(NC(=O)c3ccc(=O)[nH]c3)CCOc3cccnc32)ccc1OC(F)(F)F [Example 199, (S)-N-(4-(3-methyl-4-(trifluoromethoxy)phenyl)-3,4-dihydro-2H-pyrano[3,2-b]pyridin-4-yl)-6-oxo-1,6-dihydropyridine-3-carboxamide]
163 | O=C(N[C@]1(c2ccc(OC(F)(F)F)c(F)c2)CCOc2cccnc21)c1cc(Cl)on1 [Example 200, (S)-5-chloro-N-(4-(3-fluoro-4-(trifluoromethoxy)phenyl)-3,4-dihydro-2H-pyrano[3,2-b]pyridin-4-yl) isoxazole-3-carboxainide]
21 | COC(=O)c1ccnc(C(=O)N[C@]2(c3ccc(OC(F)(F)F)c(F)c3)CCOc3cccnc32)c1 [Example 201, (S)-methyl 2-((4-(3-fluoro-4-(trifluoromethoxy)phenyl)-3,4-dihydro-2H-pyrano[3,2-b]pyridin-4-yl)carbamoyl) isonicotinate]
27 | C[C@@H](O)Cn1cc(C(=O)N[C@]2(c3ccc(OC(F)(F)F)c(F)c3)CCOc3cccnc32)ccc1=O [Example 202, N-((S)-4-(3-fluoro-4-(trifluoromethoxy)phenyl)-3,4-dihydro-2H-pyrano[3,2-b]pyridin-4-yl)-1-((R)-2-hydroxypropyl)-6-oxo-1,6-dihydropyridine-3-carboxamide]
74 | O=C(N[C@]1(c2ccc(OC(F)(F)F)c(F)c2)CCOc2cccnc21)c1ccc(Br)s1 [Example 203, (S)-5-bromo-N-(4-(3-fluoro-4-(trifluoromethoxy)phenyl)-3,4-dihydro-2H-pyrano[3,2-b]pyridin-4-yl) thiophene-2-carboxamide]
4 | O=C(N[C@]1(c2ccc(C(F)(F)F)cc2)CCOc2cccnc21)c1cc(F)c(O)c(F)c1 [Example 205, (S)-3,5-difluoro-4-hydroxy-N-(4-(4-(trifluoromethyl)phenyl)-3,4-dihydro-2H-pyrano[3,2-b]pyridin-4-yl) benzamide]
13 | O=C(N[C@]1(c2ccc(OC(F)(F)F)c(F)c2)CCOc2cccnc21)c1ccc(Br)cn1 [Example 206, (S)-5-bromo-N-(4-(3-fluoro-4-(trifluoromethoxy)phenyl)-3,4-dihydro-2H-pyrano[3,2-b]pyridin-4-yl) picolinamide]
1 | O=C(N[C@]1(c2ccc(OC(F)(F)F)c(F)c2)CCOc2cccnc21)c1cc(F)c(O)c(F)c1 [Example 207, (S)-3,5-difluoro-N-(4-(3-fluoro-4-(trifluoromethoxy)phenyl)-3,4-dihydro-2H-pyrano[3,2-b]pyridin-4-yl)-4-hydroxybenzamide]
11 | O=C(N[C@]1(c2ccc(OC(F)(F)F)c(F)c2)CCOc2cccnc21)c1ccc(Br)o1 [Example 208, (S)-5-bromo-N-(4-(3-fluoro-4-(trifluoromethoxy)phenyl)-3,4-dihydro-2H-pyrano[3,2-b]pyridin-4-yl)furan-2-carboxamide]
45 | COC(=O)c1cc2ccc(C(=O)N[C@]3(c4ccc(OC(F)(F)F)c(F)c4)CCOc4cccnc43)cc2[nH]1 [Example 209, (S)-methyl 6-((4-(3-fluoro-4-(trifluoromethoxy)phenyl)-3,4-dihydro-2H-pyrano[3,2-b]pyridin-4-yl)carbamoyl)-1H-indole-2-carboxylate]
2310 | O=C(N[C@]1(c2ccc(OC(F)(F)F)cc2)CCOc2cccnc21)c1ncc[nH]1 [Example 210, (S)-N-(4-(4-(trifluoromethoxy)phenyl)-3,4-dihydro-2H-pyrano[3,2-b]pyridin-4-yl)-1H-imidazole-2-carboxamide formate]
336 | O=C(N[C@]1(c2ccc(OC(F)(F)F)cc2)CCOc2cccnc21)c1cc[nH]n1 [Example 211, (S)-N-(4-(4-(trifluoromethoxy)phenyl)-3,4-dihydro-2H-pyrano[3,2-b]pyridin-4-yl)-1H-pyrazole-3-carboxamide formate]
1690 | O=C(N[C@]1(c2ccc(OC(F)(F)F)cc2)CCOc2cccnc21)c1nnc[nH]1 [Example 212, (S)-N-(4-(4-(trifluoromethoxy)phenyl)-3,4-dihydro-2H-pyrano[3,2-b]pyridin-4-yl)-4H-1,2,4-triazole-3-carboxamide formate]
81 | O=C(N[C@]1(c2ccc(OC(F)(F)F)cc2)CCOc2cccnc21)c1ccns1 [Example 213, (S)-N-(4-(4-(trifluoromethoxy)phenyl)-3,4-dihydro-2H-pyrano[3,2-b]pyridin-4-yl)isothiazole-5-carboxamide formate]
190 | O=C(N[C@]1(c2ccc(OC(F)(F)F)cc2)CCOc2cccnc21)c1cnns1 [Example 214, (S)-N-(4-(4-(trifluoromethoxy)phenyl)-3,4-dihydro-2H-pyrano[3,2-b]pyridin-4-yl)-1,2,3-thiadiazole-5-carboxamide formate]
270 | O=C(N[C@]1(c2ccc(OC(F)(F)F)cc2)CCOc2cccnc21)c1cc2cccnc2[nH]1 [Example 216, (S)-N-(4-(4-(trifluoromethoxy)phenyl)-3,4-dihydro-2H-pyrano[3,2-b]pyridin-4-yl)-1H-pyrrolo[2,3-b] pyridine-2-carboxamide formate]
46 | O=C(N[C@]1(c2ccc(OC(F)(F)F)cc2)CCOc2cccnc21)c1c[nH]c2ncccc12 [Example 217, (S)-N-(4-(4-(trifluoromethoxy)phenyl)-3,4-dihydro-2H-pyrano[3,2-b]pyridin-4-yl)-1H-pyrrolo[2,3-b] pyridine-3-carboxamide fonnate]
10 | O=C(N[C@]1(c2ccc(OC(F)(F)F)cc2)CCOc2cccnc21)c1ccnc2[nH]ccc12 [Example 218, (S)-N-(4-(4-(trifluoromethoxy)phenyl)-3,4-dihydro-2H-pyrano[3,2-b]pyridin-4-yl)-1H-pyrrolo[2,3-b] pyridine-4-carboxamide formate]
11 | O=C(N[C@]1(c2ccc(OC(F)(F)F)cc2)CCOc2cccnc21)c1cc2ccccn2n1 [Example 219, (S)-N-(4-(4-(trifluoromethoxy)phenyl)-3,4-dihydro-2H-pyrano[3,2-b]pyridin-4-yl) pyrazolo[1,5-a] pyridine-2-carboxainide formate]
16 | O=C(N[C@]1(c2ccc(OC(F)(F)F)cc2)CCOc2cccnc21)c1cc2n(n1)CCCO2 [Example 220, (S)-N-(4-(4-(trifluoromethoxy)phenyl)-3,4-dihydro-2H-pyrano[3,2-b]pyridin-4-yl)-6,7-dihydro-5H-pyrazolo[5,1-b] [1,3]oxazine-2-carboxamide formate]
31 | O=C(N[C@]1(c2ccc(OC(F)(F)F)cc2)CCOc2cccnc21)c1cccc2cccnc12 [Example 221, (S)-N-(4-(4-(trifluoromethoxy)phenyl)-3,4-dihydro-2H-pyrano[3,2-b]pyridin-4-yl)quinoline-8-carboxamide formate]
2000 | Cc1ccc2[nH]c(C(=O)N[C@]3(c4ccc(OC(F)(F)F)cc4)CCOc4cccnc43)cc2c1 [Example 222, (S)-5-methyl-N-(4-(4-(trifluoromethoxy)phenyl)-3,4-dihydro-2H-pyrano[3,2-b]pyridin-4-yl)-1H-indole-2-carboxamide formate]
10 | O=C(N[C@]1(c2ccc(OC(F)(F)F)cc2)CCOc2cccnc21)c1ccc2c(=O)[nH]ccc2c1 [Example 223, (S)-1-oxo-N-(4-(4-(trifluoromethoxy)phenyl)-3,4-dihydro-2H-pyrano[3,2-b]pyridin-4-yl)-1,2-dihydroisoquinoline-6-carboxamide formate]
116 | O=C(N[C@]1(c2ccc(OC(F)(F)F)cc2)CCOc2cccnc21)c1cc2nccc(C3CC3)n2n1 [Example 224, (S)-7-cyclopropyl-N-(4-(4-(trifluoromethoxy)phenyl)-3,4-dihydro-2H-pyrano[3,2-b]pyridin-4-yl) pyrazolo[1,5-a] pyrimidine-2-carboxamide formate]
12 | COc1ccc2cc(C(=O)N[C@]3(c4ccc(OC(F)(F)F)cc4)CCOc4cccnc43)cnc2c1 [Example 225, (S)-7-methoxy-N-(4-(4-(trifluoromethoxy)phenyl)-3,4-dihydro-2H-pyrano[3,2-b]pyridin-4-yl)quinoline-3-carboxamide formate]
